Format in all cases: cell-based, human
The test system of experiment [1] is HeLa H2B-GFP cells. Briefly: Live cell imaging of mitotic duration and cell fate. As to the method: Detailed siRNA transfection and drug treatment schemes are described in supplemental experimental procedures. HeLa H2B-GFP cells were plated in DMEM with 10% FBS at 20% confluence. […] Live cell imaging was performed at 12 minute intervals on a Nikon TE2000E PFS inverted microscope fitted with an incubation chamber maintained at 37° C. and supplied with 5% CO2. Cell division was tracked by manual inspection of movies, and mitotic duration was measured as the time between the first frame of chromosome condensation and the frame of chromosome segregation (anaphase), decondensation (mitotic exit without anaphase) or cell death (chromosomes shrinking to a small bright dot).
The imaging plate was mounted onto a motorized stage (Prior ProScan II) on a Nikon TE2000E PFS inverted microscope fitted with an incubation chamber maintained at 37° C. and supplied with 5% CO2. A 20× Plan Apo 0.75 NA or 40× Plan Fluor 0.75 NA objective lens was used as indicated and images were collected with 2×2 binning. […] TIFF files of each image were exported from Elements and used to build stacks and Quicktime movies with Metamorph imaging software (Molecular Devices). For manual analysis, mitotic duration is counted as the time between the first frame of chromosome condensation and the frame of chromosome segregation (anaphase) or decondensation (mitotic exit in the presence of nocodazole) or cell death (chromosomes shrinking to a small bright dot).
HeLa H2B-GFP cells were plated in a 24-well plate in DMEM 10% FBS at 20% confluence one day prior to experiment and synchronized by double thymidine block as described above. […] Live cell imaging was set up as described above.
HeLa H2B-GFP cells were plated in a 24-well plate in DMEM+10% FBS at 20% confluence one day prior to the experiment and synchronized by double thymidine block as described above. The cells were released from the first thymidine block into 200 μl OptiMem without FBS. Transfection was performed immediately after the first thymidine release. […] The two mixtures were left at room temperature for 5 min before being mixed together and incubated for additional 20 min and then added to the cells to a final volume of 250 μl. 4 h after transfection, 250 μl of DMEM+20% FBS were added to cells.
HeLa H2B-GFP cells were plated in glass-bottom 24-well plates at 20% confluence one day prior to the experiment and synchronized by double thymidine block as described above. […] Cells were treated with 100 nM Hesperadin or DMSO 8 h after release from the second thymidine block and live cell imaging was set up as described above.
HeLa H2B-GFP cells were plated in a 24-well plate in DMEM+10% FBS at 20% confluence one day prior to experiment and synchronized by double thymidine block as synchronized above. […] Live cell imaging was set up as described above.
HeLa H2B-GFP cells were plated in a 24-well plate in DMEM+10% FBS at 20% confluence one day prior to experiment and synchronized by double thymidine block as described above. […] Untreated cells were used as the control. Live cell imaging was set up as described above. […] Alternatively, at 10 h after release from the second block, 10 μM MG132 with or without 25 μg/ml cycloheximide was added to the cells. […] Live cell imaging was set up as described above.
HeLa H2B-GFP cells were plated in a 24-well plate in DMEM+10% FBS at 20% confluence one day prior to experiment and synchronized by double thymidine block as described above. Mad2 siRNA transfection was performed as described above. At 10 h after release from the second block, 10 μM MG132 with or without 25 μg/ml cycloheximide was added to the cells. Live cell imaging was set up as described above. Manual analysis was focused only on cells that entered mitosis after MG132 addition.
Live cell imaging experiments. […] Nocodazole, taxol, proTAME, cyclinal and hesperadin were added to cells at 8 h after release. MG132 was added to cells at 10 h after release to allow mitotic entry.

Experiment [2] relates to HeLa H2B-GFP cells. Briefly: Chromosome congression analysis. Here is the method:
HeLa H2B-GFP cells were plated in 35 mm glass-bottom dishes (MatTek) in DMEM+10% FBS at 20% confluence one day prior to the experiment and synchronized by double thymidine block as described above. Drugs were added as follows to a final volume of 3 ml from 2× concentrated preparation in culture medium. DMSO (0.06%), proTAME (3 and 12 μM) or 10 nM Nocodazole were added 8 h after release from the second block, while MG132 (10 μM) was added at 10 h. H2B-GFP was imaged for 4 hrs every 3 min at 40× magnification as described above.

Another experiment concerns HeLa cells. Briefly: Immunofluorescence of mitotic spindle and interkinetochore distance. The following applies: asynchronous HeLa, 2 h; 12 μM proTAME; nocodazole or taxol. As to the method: HeLa cells grown in DMEM+10% FBS were plated on 25 mm glass coverslips in a E-well dish at a density of 130,000/ml×3 ml 48 h prior to treatment. They were then treated with 0.06% DMSO, 12 μM proTAME, 300 nM nocodazole or 300 nM taxol for 2 h. The cells were washed twice with PBS and fixed with 3% paraformaldehyde for 15 min. The cells were then washed with PBS and permeabilized with PBS plus 0.5% Triton X-100 for 2 min. The cells were then washed with PBS and blocked with PBS plus 5% FBS for 1 h. CREST antisera diluted 1:50 into PBS was added to the cells and incubated at room temperature for 1 h. The cells were washed with PBS and incubated with 1:1000 anti-human-Alexa 568 (Invitrogen, A21090) and 1:100 anti-α-tubulin-FITC for 1 h. The cells were then washed with PBS and the nuclei were stained with 1 μg/ml Hoechst 33342. The cover slips were mounted in 0.1M N-propylgallate in 9:1 glycerol:PBS. Z-series images were taken on a Nikon TE2000 microscope with PerkinElmer spinning disk confocal device. Maximal Z-projection images of individual cells were made by Image J. To measure interkinetochore distances, a straight line was drawn across a kinetochore pair in the same confocal plane and pixel intensities along the line were plotted so that each kinetochore would be represented by a peak on the line. The interkinetochore distance was calculated as the distance between the peaks. Fifty-five kinetochore pairs from 5 cells treated with DMSO or proTAME were measured and the p-value was calculated with a paired student test.

[3] abbreviates: Fig 6C, compounds 8 h after release, 12 μM proTAME, 300 nM nocodazole, 150 nM taxol, 100 nM hesperadin.
Setting [4] is: Fig 6D, Cdc27 siRNA, 100 nM hesperadin.
[5] abbreviates: Fig 6D, UbcH10 siRNA, 100 nM hesperadin.
The mark [6] stands for this setting: Fig 6D, control siRNA, 100 nM hesperadin.
The mark [7] stands for this setting: Fig S4C, proTAME 12 μM, MG132 10 μM, nocodazole 10 nM.
Where [8] appears, read: Fig 7A, control siRNA, 3 μM MG132.
[9] abbreviates: Fig 7B, MG132 3 μM, 100 nM hesperadin, 12 μM proTAME.
Where [10] appears, read: Fig 7D, MG132 10 μM, 100 nM hesperadin, 12 μM proTAME.
Where [11] appears, read: Fig 8B, MAD2 siRNA, MG132 10 μM ± 25 μg/ml cycloheximide.
Where [12] appears, read: Fig 8B, control siRNA, MG132 10 μM ± 25 μg/ml cycloheximide.
[13] abbreviates: Fig 8A, 12 μM proTAME, 300 nM nocodazole or 150 nM taxol, ± 25 μg/ml cycloheximide 4 h later.

SMILES strings stand for the structures. Peptide text beside a SMILES is read from it. * marks the point of attachment. Cbz = O=C(OCc1ccccc1)*

Three compounds from patent US9572788B2, “Cell permeable inhibitors of anaphase promoting complex” (President and Fellows of Harvard College, priority 2014, dated 2017) can be followed below.

Consider `CCS(=O)(=O)Nc1ccc2c(c1)/C(=C(/Nc1ccc(CN3CCCCC3)cc1)c1ccccc1)C(=O)N2` [Hesperadin, reference compound], for which the Average mitotic duration is 98.7 min with HeLa H2B-GFP cells [1] (setting [3]), 131.8 min in the experiment with HeLa H2B-GFP cells [1] (setting [4]), 115.8 min with HeLa H2B-GFP cells [1] (setting [5]) and 115.6 min in the experiment with HeLa H2B-GFP cells [1] (setting [6]). For the same compound, the Median mitotic duration with HeLa H2B-GFP cells [1] (setting [3]) is on record as 96 min; in the experiment with HeLa H2B-GFP cells [1] (setting [4]), 132 min; with HeLa H2B-GFP cells [1] (setting [5]), 108 min; in the experiment on HeLa H2B-GFP cells [1] (setting [6]) it was 120 min. Further, the “Mitotic duration in the presence of taxol” value in the experiment with HeLa H2B-GFP cells [1] (co-treated with taxol) was about 2 h.
Take `CC(C)C[C@@H](C=O)NC(=O)[C@H](CC(C)C)NC(=O)[C@H](CC(C)C)NC(=O)OCc1ccccc1` [MG132, reference compound] (Cbz-Leu-Leu-Leu-aldehyde): in the experiment with HeLa H2B-GFP cells [2] (3 μM proTAME or 10 μM MG132), the “Delay in chromosome congression” value is reported as “caused no delay in chromosome congression”. Besides, in the experiment with HeLa H2B-GFP cells [2] (setting [7]), the “Average chromosome congression time” value is recorded as 21.6 min. In addition, the “Median chromosome congression time” value in the experiment with HeLa H2B-GFP cells [2] (setting [7]) came out at 21 min. In the experiment on HeLa H2B-GFP cells [1] (3 μM), the “Median duration of mitotic arrest” value was found to be 15 h. The “Cells that exited mitosis” value in the experiment on HeLa H2B-GFP cells [1] (3 μM, 30 h experiment) is 10%; in the experiment with HeLa H2B-GFP cells [1] (3 μM, cells depleted of Mad2 by RNAi), 50%. The “Response of arrested cells to roscovitine” value in the experiment with HeLa H2B-GFP cells [1] (100 μM roscovitine at 12 h after release) is reported as “showed complete resistance to roscovitine”. In addition, the Average mitotic duration with HeLa H2B-GFP cells [1] (Fig 7A, MAD2 siRNA, 3 μM MG132) came to 605.3 min; in the experiment on HeLa H2B-GFP cells [1] (setting [8]), 830.1 min; with HeLa H2B-GFP cells [1] (setting [9]), 1549.9 min; with HeLa H2B-GFP cells [1] (setting [10]), 2169.8 min; in the experiment on HeLa H2B-GFP cells [1] (setting [11]), 1755.2 min; with HeLa H2B-GFP cells [1] (setting [12]) it was 1715.1 min. Moreover, the Median mitotic duration is 667.5 min with HeLa H2B-GFP cells [1] (Fig 7A, MAD2 siRNA, 3 μM MG132); 840 min with HeLa H2B-GFP cells [1] (setting [8]); 1440 min in the experiment with HeLa H2B-GFP cells [1] (setting [9]); 2172 min in the experiment on HeLa H2B-GFP cells [1] (setting [10]); 1716 min in the experiment on HeLa H2B-GFP cells [1] (setting [11]); 1614 min in the experiment on HeLa H2B-GFP cells [1] (setting [12]). The “Time normal-appearing metaphase plate maintained” value in the experiment with HeLa H2B-GFP cells [1] (MG132 alone) was “over 5 h”. Also, in the experiment on HeLa H2B-GFP cells [1] (synchronized, drugs 10 hrs after release, proTAME 3 μM, low-dose MG132), the Median mitotic delay/arrest was found to be 276 min.
Turning to `CC(=O)O[C@H]1C(=O)[C@@]2(C)[C@H]([C@H](OC(=O)c3ccccc3)[C@]3(O)C[C@H](OC(=O)[C@H](O)[C@@H](NC(=O)c4ccccc4)c4ccccc4)C(C)=C1C3(C)C)[C@]1(OC(C)=O)CO[C@@H]1C[C@@H]2O` [Taxol, reference compound], the Average mitotic duration in the experiment with HeLa H2B-GFP cells [1] (setting [3]) turned out to be 1946.9 min; in the experiment on HeLa H2B-GFP cells [1] (setting [13]) it was 1557.6 min. For the same compound, the Median mitotic duration in the experiment with HeLa H2B-GFP cells [1] (setting [3]) amounted to 2070 min; in the experiment with HeLa H2B-GFP cells [1] (setting [13]), 1602 min; in the experiment with HeLa H2B-GFP cells [1] (unsynchronized HeLa H2B-GFP, taxol 10 nM, proTAME 3 μM, control 60 min), 414 min. The “Effect on mitotic spindle” value in the experiment with HeLa cells is reported as “strongly perturbed spindle organization”.
